Data taken from the OligoGym collection.
Several values for one entry are separate records, joined by “and”; a condition that tells them apart may be missing. Equal entries are not always repeated. After the bases stand the sugars from the 5' end (letter, count) and the backbone: PS all phosphorothioate, else s phosphorothioate and o phosphodiester by linkage. Methylation of C is not given here. e = 2'-O-(2-methoxyethyl) (MOE); k = constrained ethyl (cEt); d = 2'-deoxy (DNA)

Biological target: APOL1
Settings: ASO

Row | Sequence | target mRNA inhibition (A431, 2 µM) | further results
1 | AACATGAAGTGAGCCT (sugars k4 d9 k3, PS) |  | target mRNA inhibition (A431, 0.0625 µM): 20%; target mRNA inhibition (A431, 0.25 µM): 49%; target mRNA inhibition (A431, 1 µM): 73%
2 | AACGCAATGCTGACTT (sugars k3 d4 k3 e1 d5, PS) | 91% | target mRNA inhibition (A431, 0.0156 µM): 3%; target mRNA inhibition (A431, 0.0625 µM): 24%; target mRNA inhibition (A431, 0.25 µM): 54%; target mRNA inhibition (A431, 1 µM): 80%
3 | AAGATTGGCTCTGGCT (sugars k2 d4 e4 k2 d4, PS) | 55% | 
4 | AAGCTTTAAACTCAGG (sugars kkkddddkekeddddd, PS) | 84% | 
5 | AAGGAGTTGCTGAAAC (sugars k4 d9 k3, PS) |  | target mRNA inhibition (A431, 0.0625 µM): 32%; target mRNA inhibition (A431, 0.25 µM): 48%; target mRNA inhibition (A431, 1 µM): 63%
6 | AAGTATTGCCAGCTAA (sugars k3 d5 k3 d5, PS) | 90% | 
7 | AAGTATTGCCAGCTAA (sugars kddddkekekeddddd, PS) | 25% | 
8 | AAGTATTGCCAGCTAA (sugars kkddddkdkdkddddd, PS) | 70% | 
9 | AAGTATTGCCAGCTAA (sugars kkddddkekekddddd, PS) | 62% | 
10 | AAGTATTGCCAGCTAA (sugars kkddddkekekkdddd, PS) | 27% | 
11 | AAGTATTGCCAGCTAA (sugars kkkddddkdkdkdddd, PS) | 54% | 
12 | AAGTATTGCCAGCTAA (sugars kkkddddkekeddddd, PS) | 63% | 
13 | AAGTATTGCCAGCTAA (sugars kkkddddkekekdddd, PS) | 47% | 
14 | AATTATGGAATTGCAG (sugars kddddkekekeddddd, PS) | 55% | 
15 | AATTATGGAATTGCAG (sugars kkddddkekekkdddd, PS) | 35% | 
16 | AATTCTATTAGAGGGC (sugars k2 d4 e3 k2 d5, PS) | 73% | 
17 | AATTCTATTAGAGGGC (sugars kkkddddkekeddddd, PS) | 82% | 
18 | ACACATCATTGGGTTA (sugars k3 d4 k3 e1 d5, PS) | 59% | 

Row | Sequence | target mRNA inhibition (A431, 2 µM) | further results
19 | ACACATCATTGGGTTA (sugars kddddkekekeddddd, PS) | 36% | 
20 | ACACATCATTGGGTTA (sugars kkdddddkekeddddd, PS) | 72% | 
21 | ACACATCATTGGGTTA (sugars kkddddkekekddddd, PS) | 50% | 
22 | ACATCATTGGGTTATG (sugars kkddddkekekkdddd, PS) | 70% | 
23 | ACGCAATGCTGACTTG (sugars k2 d4 e3 k2 d5, PS) | 87% | 
24 | ACGCAATGCTGACTTG (sugars k3 d5 k3 d5, PS) | 94% | target mRNA inhibition (A431, 0.0625 µM): 54%; target mRNA inhibition (A431, 0.25 µM): 83%; target mRNA inhibition (A431, 1 µM): 94%
25 | ACGCAATGCTGACTTG (sugars kddddkekekeddddd, PS) | 72% | 
26 | ACTGAGGGTATATGAA (sugars k4 d9 k3, PS) |  | target mRNA inhibition (A431, 0.0625 µM): 22%; target mRNA inhibition (A431, 0.25 µM): 40%; target mRNA inhibition (A431, 1 µM): 58%
27 | AGATTGGCTCAGTGAC (sugars k4 d9 k3, PS) |  | target mRNA inhibition (A431, 0.0625 µM): 44% and 27%; target mRNA inhibition (A431, 0.25 µM): 70% and 52%; target mRNA inhibition (A431, 1 µM): 87% and 76%
28 | AGATTGGCTCTGGCTC (sugars kdddddkekekddddd, PS) | 40% | 
29 | AGATTGGCTCTGGCTC (sugars kkddddkekekkdddd, PS) | 18% | 
30 | AGCAGCCACGAATCCG (sugars k4 d9 k3, PS) |  | target mRNA inhibition (A431, 0.0625 µM): 40%; target mRNA inhibition (A431, 0.25 µM): 66%; target mRNA inhibition (A431, 1 µM): 63%
31 | AGCTTTAAACTCAGGT (sugars k3 d5 k3 d5, PS) | 68% | 
32 | AGCTTTAAACTCAGGT (sugars kekddddeekkddddd, PS) | 82% | 
33 | AGCTTTAAACTCAGGT (sugars kkkddddkekeddddd, PS) | 85% | 
34 | AGTATTGTTTTTGTGG (sugars kkdddddkekeddddd, PS) | 91% | 
35 | AGTATTGTTTTTGTGG (sugars kkddddkekekddddd, PS) | 75% | 
36 | AGTATTGTTTTTGTGG (sugars kkkddddkekekdddd, PS) | 55% | 
